Experimental findings from patent US4281121A, “1,3,4-Thiadiazole-2-carboxylic acid derivatives, process for making the same and fungicidal and nematocidal compositions containing same” (Schering Aktiengesellschaft, priority 1978, dated 1981) are described below.

One assay has as its system Botrytis cinerea. The assay can be described thus: Inhibition of fungus in a nutrient solution: Botrytis cinerea.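 Note: 0 means no fungus growth and higher grades mean more surface covered.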 The note with it: 6 days at 21-23° C. Type of assay: cell-based.
The subject of the next assay is Alternaria solani. The assay can be described thus: Inhibition of fungus in a nutrient solution: Alternaria solani.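 Note: 0 means no fungus growth and higher grades mean more surface covered.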 The note with it: 6 days at 21-23° C. The format is cell-based.
A further assay concerns Piricularia oryzae. The format is in vivo. The note with it: concentration of active agent 0.1 (percentages); 5 days.
The subject of a further assay is Fusarium avenaceum. The assay can be described thus: Inhibition of fungus in a nutrient solution: Fusarium avenaceum.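 Note: 0 means no fungus growth and higher grades mean more surface covered.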 The note with it: 6 days at 21-23° C. Type of assay: cell-based. How it is done:
Inhibition of fungus in a nutrient solution
20 ml of a nutrient solution of grape juice and water (1:1) were filled into a glass vial of a 100 ml capacity and were mixed with the pulverulent active agents which appear from the subsequent table. Thereafter, the solution was inoculated with conidia (spores) of the test fungi.
After an incubation time of 6 days at 21° to 23° C. the fungus development on the surface of the nutrient solution was evaluated. The test fungi used were the following: Penicillium digitatum, Botrytis cinerea, Alternaria solani, Fusarium avenaceum.
The evaluation was carried out at a scale from 0 to 5 as follows: […]

A further assay deals with Penicillium digitatum. The assay can be described thus: Inhibition of fungus in a nutrient solution: Penicillium digitatum.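 Note: 0 means no fungus growth and higher grades mean more surface covered.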 The format is cell-based. The conditions noted are these: 6 days at 21-23° C.

The structures appear in SMILES notation.

Consider `CCOC(=O)c1nnc(S(=O)(=O)CC)s1` [5-ethylsulfonyl-1,3,4-thiadiazole-2-carboxylic acid-ethylester], for which the “fungus development on the surface of the nutrient solution (0-5)” value (shortened to “fungus development on the surface”) is recorded as 2 (5 to 10% of the surface covered by the fungus turf) in the assay with Botrytis cinerea (0.002%); 0 with Botrytis cinerea (0.004%); 0 in the assay on Alternaria solani (0.002%); 0 in the assay on Alternaria solani (0.004%); 1 with Fusarium avenaceum (0.002%); 0 in the assay on Fusarium avenaceum (0.004%). In addition, the “fungus development on the surface” value in the assay with Penicillium digitatum (0.002%) is 1; in the assay on Penicillium digitatum (0.004%), 0. The “% activity” value in the assay on Piricularia oryzae is 95%.
For `O=C1c2ccccc2C(=O)N1SC(Cl)(Cl)Cl` [N-trichloromethylmercapto-phthalimide, reference compound], the “fungus development on the surface” value with Botrytis cinerea (0.002%) is on record as 4 (30 to 60% of the surface covered by the fungus turf); in the assay on Botrytis cinerea (0.004%), 3 (10 to 30% of the surface covered by the fungus turf); in the assay with Alternaria solani (0.002%) it was 4 (30 to 60% of the surface covered by the fungus turf); with Alternaria solani (0.004%), 4 (30 to 60% of the surface covered by the fungus turf); in the assay on Fusarium avenaceum (0.002%) it was 4 (30 to 60% of the surface covered by the fungus turf); in the assay with Fusarium avenaceum (0.004%), 4 (30 to 60% of the surface covered by the fungus turf). The “fungus development on the surface” value in the assay with Penicillium digitatum (0.002%) and with Penicillium digitatum (0.004%) was 4 (30 to 60% of the surface covered by the fungus turf) throughout.
As to `N#Cc1c(Cl)c(Cl)c(Cl)c(C#N)c1Cl` [Tetrachloroisophthalodinitrile, reference compound], the “fungus development on the surface” value with Botrytis cinerea (0.002%) is reported as 5 (60 to 100% of the surface covered by the fungus turf); in the assay with Botrytis cinerea (0.004%), 4 (30 to 60% of the surface covered by the fungus turf); in the assay on Alternaria solani (0.002%), 5 (60 to 100% of the surface covered by the fungus turf); in the assay on Alternaria solani (0.004%), 5 (60 to 100% of the surface covered by the fungus turf); in the assay on Fusarium avenaceum (0.002%), 4 (30 to 60% of the surface covered by the fungus turf); with Fusarium avenaceum (0.004%) it was 3 (10 to 30% of the surface covered by the fungus turf). The “fungus development on the surface” value in the assay with Penicillium digitatum (0.002%) is recorded as 3 (10 to 30% of the surface covered by the fungus turf); in the assay on Penicillium digitatum (0.004%) it was 2 (5 to 10% of the surface covered by the fungus turf).
